Laboratory results as given in patent US7384933B2, “Derivatives of 2-hydroxytetrahydrofuran and their use as medicaments” (priority 2003, dated 2008).

Structure (SMILES) | melting point [°C]
CC(C)C[C@H](NC(=O)[C@@H]1CCCN1C(=O)c1ccc2c(c1)Nc1ccccc1S2)C(=O)N[C@H]1CCOC1O (stereo partly drawn) [Example 10, 1-(10H-phenothiazin-2-ylcarbonyl)-L-prolyl-N^1-[(3S)-2-hydroxytetrahydrofuran-3-yl]-L-leucinamide] | 144.5 to 145
CC(C)C[C@H](NC(=O)[C@@H](NC(=O)COc1ccc2c(c1)Nc1ccccc1S2)C(C)(C)C)C(=O)N[C@H]1CCOC1O (stereo partly drawn) [Example 47, 3-methyl-N-[(10H-phenothiazin-2-yloxy)acetyl]-L-valyl-N^1-[(3S)-2-hydroxytetrahydrofuran-3-yl]-L-leucinamide] | 157 to 159
C=CC(NC(=O)COc1ccc2c(c1)Nc1ccccc1S2)C(=O)NC(CC(C)C)C(=O)NC1CCOC1O [Example 53, N^1-[(3S)-2-hydroxytetrahydrofuran-3-yl]-N^2-((2S)-2-{[(10H-phenothiazin-2-yloxy)-acetyl]amino}goal-3-enoyl)-L-leucinamide] | 159 to 161
CC(C)C[C@H](NC(=O)[C@H](CCCCNC(=O)OCc1ccccc1)NC(=O)c1ccc2c(c1)Nc1ccccc1S2)C(=O)N[C@H]1CCOC1O (stereo partly drawn) [Example 9, N 6-[(benzyloxy)carbonyl]-N^2-(10H-phenothiazin-2-ylcarbonyl)lysyl-N^1-[(3S)-2-hydroxytetrahydrofuran-3-yl]-L-leucinamide] | 109 to 109.5
COC1OCC[C@@H]1NC(=O)[C@H](CC(C)C)NC(=O)[C@@H](NC(=O)COc1ccc2c(c1)Nc1ccccc1S2)C(C)C (some centres unmarked) | 240 to 241
CC[C@H](NC(=O)COc1ccc2c(c1)Nc1ccccc1S2)C(=O)N[C@@H](CC(C)C)C(=O)N[C@H]1CCOC1OC (some centres unmarked) | 164 to 165
CC(C)C[C@H](NC(=O)[C@H](NC(=O)COc1ccc2c(c1)Nc1ccccc1S2)C(C)C)C(=O)N[C@H]1CCOC1O (stereo partly drawn) [Example 46, N-[(10H-phenothiazin-2-yloxy)acetyl]-D-valyl-N^1-[(3S)-2-hydroxytetrahydrofuran-3-yl]-L-leucinamide] | 145 to 146
CC(C)C[C@H](NC(=O)[C@H](CO)NC(=O)COc1ccc2c(c1)Nc1ccccc1S2)C(=O)N[C@H]1CCOC1O (stereo partly drawn) [Example 50, N-[(10H-phenothiazin-2-yloxy)acetyl]-L-seryl-N^1-[(3S)-2-hydroxytetrahydrofuran-3-yl]-L-leucinamide] | 128 to 130
COC1OCC[C@@H]1NC(=O)[C@H](CC(C)C)NC(=O)[C@H](NC(=O)COc1ccc2c(c1)Nc1ccccc1S2)C(C)C (some centres unmarked) | 204 to 206

Next, values leading:

melting point [°C] | Structure (SMILES)
205 to 206 | CC(C)C[C@H](NC(=O)[C@@H](NC(=O)COc1ccc2c(c1)Nc1ccccc1S2)C(C)C)C(=O)N[C@H]1CCOC1O (stereo partly drawn) [Example 43, N-[(10H-phenothiazin-2-yloxy)acetyl]-L-valyl-N^1-[(3S)-2-hydroxytetrahydrofuran-3-yl]-L-leucinamide]
184 to 186 | CC(C)C[C@H](NC(=O)CNC(=O)COc1ccc2c(c1)Nc1ccccc1S2)C(=O)N[C@H]1CCOC1O (stereo partly drawn) [Example 41, N-[(10H-phenothiazin-2-yloxy)acetyl]-glycyl-N^1-[(3S)-2-hydroxytetrahydrofuran-3-yl]-L-leucinamide]
195 to 196 | COC1OCC[C@@H]1NC(=O)[C@H](CC(C)C)NC(=O)[C@H](C)NC(=O)COc1ccc2c(c1)Nc1ccccc1S2 (some centres unmarked)
200 to 201 | CC(C)[C@H](NC(=O)CNC(=O)COc1ccc2c(c1)Nc1ccccc1S2)C(=O)N[C@H]1CCOC1O (stereo partly drawn) [Example 55, N-[(10H-phenothiazin-2-yloxy)acetyl]glycyl-N^1-[(3S)-2-hydroxytetrahydrofuran-3-yl]-L-valinamide]
92 to 95 | COC1OCC[C@@H]1NC(=O)[C@H](CC(C)C)NC(=O)CN(C)C(=O)COc1ccc2c(c1)Nc1ccccc1S2 (some centres unmarked)
